Key:
Type in all cases: binding
[1] = tested on: single-stranded RNA: 5′-r(ACGAGAACAUCC)-3′ (SEQ ID NO: 11); test: Melting temperature (Tm) measurement, double strand-forming ability, with single-stranded RNA; conditions: for Tm (N = A): Table 2, full-match RNA N = A, 10 mM sodium phosphate buffer; for Tm (N = A) / Tm: 200 mM NaCl; for Tm / ΔTm/mod.: duplex with single-stranded RNA SEQ ID NO: 11; for Tm: 10 mM phosphate buffer (pH7.0), 2.5 μM each oligonucleotide; for ΔTm/mod.: change per modification vs natural oligonucleotide
Procedure: (§1) A sample solution ([…]) with final concentrations of 10 mM phosphate buffer (pH7.0), 200 mM sodium chloride, and 2.5 μM each oligonucleotide was immersed in boiling water and slowly cooled to room temperature. The sample solution was cooled to 20° C., and the measurement was started. The temperature was raised to 90° C. at a rate of 0.5° C. per minute, and the absorbance at 260 nm was plotted at intervals of 0.5° C. All Tm values were calculated by the midline method and the average of three independent measurement results was taken.
(§2) conditions: 10 mM sodium phosphate buffer (pH7.0) containing 200 mM NaCl, […] of each strand

[2] = tested on: single-stranded DNA: 5′-d(ACGAGAACATCC)-3′ (SEQ ID NO: 12); test: Melting temperature (Tm) measurement, double strand-forming ability, with single-stranded DNA; conditions: duplex with single-stranded DNA SEQ ID NO: 12; for Tm: 10 mM phosphate buffer (pH7.0), 200 mM NaCl, 2.5 μM each oligonucleotide; for ΔTm/mod.: change per modification vs natural oligonucleotide
Procedure: as §1, §2

[3] = tested on: single-stranded RNA:5′-r(ACGAGANCAUCC)-3′, N = C; test: Tm measurement with single-stranded RNA (base sequence identifying ability), N = C; conditions: mismatch RNA N = C; for ΔTm (N = C), in parentheses: difference from N = A; for Tm (N = C): 10 mM sodium phosphate buffer, 200 mM NaCl
Procedure: as §1, §2

[4] = tested on: single-stranded RNA:5′-r(ACGAGANCAUCC)-3′, N = U; test: Tm measurement with single-stranded RNA (base sequence identifying ability), N = U; conditions: mismatch RNA N = U; for ΔTm (N = U), in parentheses: difference from N = A; for Tm (N = U): 10 mM sodium phosphate buffer, 200 mM NaCl
Procedure: as §1, §2

[5] = tested on: single-stranded RNA:5′-r(ACGAGANCAUCC)-3′, N = G; test: Tm measurement with single-stranded RNA (base sequence identifying ability), N = G; conditions: mismatch RNA N = G; for ΔTm (N = G), in parentheses: difference from N = A; for Tm (N = G): 10 mM sodium phosphate buffer, 200 mM NaCl
Procedure: as §1, §2

Substance	Tm (N = A) [1]	Tm [1]	Tm [2]	ΔTm (N = C), in parentheses [3]	Tm (N = C) [3]	ΔTm (N = U), in parentheses [4]	Tm (N = U) [4]	ΔTm (N = G), in parentheses [5]	Tm (N = G) [5]	ΔTm/mod. [1]	ΔTm/mod. [2]
5′-GGATGTTCTCGT-3′: unmodified (natural) oligonucleotide, SEQ ID NO: 1 (unmodified DNA)	52 °C	52 °C	51 °C	-14 º C.	38 °C	-12 º C.	40 °C	-4 º C.	48 °C		
5′-GGATGYTCTCGT-3′: modified oligonucleotide with one Y modification; Y not defined in the visible text (DNA GGATGTTCTCGT; Y modified nucleotide; misc_difference (6)..(6) LNA)	58 °C	58 °C	54 °C	-14 º C.	44 °C	-13 º C.	45 °C	-5 º C.	53 °C	+6.0 °C	+3.0 °C
5′-GGATGZTCTCGT-3′: modified oligonucleotide with one Z modification; Z not defined in the visible text (DNA GGATGTTCTCGT; Z modified nucleotide; misc_difference (6)..(6) ENA)	58 °C	58 °C	52 °C	-15 º C.	43 °C	-13 º C.	45 °C	-4 º C.	54 °C	+6.0 °C	+1.0 °C
5′-GGATGXTCTCGT-3′: modified oligonucleotide with one X modification; X not defined in the visible text (DNA GGATGTTCTCGT; DNA oligonucleotide with modified nucleotide X, X not given here, further chemistry not given here)	58 °C	58 °C	53 °C	-15 º C.	43 °C	-14 º C.	44 °C	-5 º C.	53 °C	+6.0 °C	+2.0 °C
